In the supplement of paper PMC5908809:

Legend:
[1] = test system: normal NK cells expanded with K562-aAPC; assay: drug sensitivity score (DSS) (DSS units); higher = more sensitive; extreme values may be limits of the assay; conditions: 72 h; IL-2 2.5 ng/mL
Procedure: (§1)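 Drug sensitivity and resistance testing on K562-aAPC-expanded normal NK cells: 5 concentrations (10-fold steps over a 10,000-fold range), 72 h at 37 °C, viability by CellTiter-Glo normalised to DMSO and benzethonium chloride controls; DSS from the fitted curve.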

NK-92 (IL-2 2.5 ng/mL) [2] = assay: as above; conditions: 72 h
NK-YS (IL-2 2.5 ng/mL) [3] = assay: as above; conditions: 72 h
IMC-1 (IL-2 20 ng/mL) [4] = assay: as above; conditions: 72 h
DERL-7 (IL-2 2.5 ng/mL) [5] = assay: as above; conditions: 72 h
YT (IL-2 2.5 ng/mL) [6] = assay: as above; conditions: 72 h
SNK-6 (IL-2 2.5 ng/mL) [7] = assay: as above; conditions: 72 h
[8] = test system: normal primary NK cells, pool 1 (3 donors), resting (IL-2 0 ng/mL); assay: as above; conditions: 72 h
[9] = test system: normal primary NK cells, pool 3 (3 donors) (IL-2 2.5 ng/mL); assay: as above; conditions: 72 h
[10] = test system: normal primary NK cells, pool 2 (3 donors) (IL-2 2.5 ng/mL); assay: as above; conditions: 72 h
KHYG-1 (IL-2 2.5 ng/mL) [11] = assay: as above; conditions: 72 h
KAI3 (IL-2 2.5 ng/mL) [12] = assay: as above; conditions: 72 h
[13] = test system: normal primary NK cells, pool 1 (3 donors) (IL-2 2.5 ng/mL); assay: as above; conditions: 72 h
NKL (IL-2 2.5 ng/mL) [14] = assay: as above; conditions: 72 h
[15] = test system: normal NK cells expanded with K562-aAPC; assay: percent inhibition of viability; higher = more inhibition; conditions: 72 h, IL-2 2.5 ng/mL
Procedure: as §1

NK-92 (IL-2 2.5 ng/mL) [16] = assay: as above; conditions: 72 h
NK-YS (IL-2 2.5 ng/mL) [17] = assay: as above; conditions: 72 h
IMC-1 (IL-2 20 ng/mL) [18] = assay: as above; conditions: 72 h
DERL-7 (IL-2 2.5 ng/mL) [19] = assay: as above; conditions: 72 h
YT (IL-2 2.5 ng/mL) [20] = assay: as above; conditions: 72 h
SNK-6 (IL-2 2.5 ng/mL) [21] = assay: as above; conditions: 72 h
[22] = test system: normal primary NK cells, pool 1 (3 donors), resting (IL-2 0 ng/mL); assay: as above; conditions: 72 h
[23] = test system: normal primary NK cells, pool 3 (3 donors) (IL-2 2.5 ng/mL); assay: as above; conditions: 72 h
[24] = test system: normal primary NK cells, pool 2 (3 donors) (IL-2 2.5 ng/mL); assay: as above; conditions: 72 h
KHYG-1 (IL-2 2.5 ng/mL) [25] = assay: as above; conditions: 72 h
KAI3 (IL-2 2.5 ng/mL) [26] = assay: as above; conditions: 72 h
[27] = test system: normal primary NK cells, pool 1 (3 donors) (IL-2 2.5 ng/mL); assay: as above; conditions: 72 h
NKL (IL-2 2.5 ng/mL) [28] = assay: as above; conditions: 72 h

O=C(CCCCCCNC(=O)c1cnc(N(c2ccccc2)c2ccccc2)nc1)NO [Rocilinostat] (max concentration tested 10000 nM)
Conditions	drug sensitivity score
DERL-7 (IL-2 2.5 ng/mL) [5]	8.01
IMC-1 (IL-2 20 ng/mL) [4]	6.83
KAI3 (IL-2 2.5 ng/mL) [12]	12
KHYG-1 (IL-2 2.5 ng/mL) [11]	11.5
NK-92 (IL-2 2.5 ng/mL) [2]	10.4
NK-YS (IL-2 2.5 ng/mL) [3]	9.02
NKL (IL-2 2.5 ng/mL) [14]	12.8
SNK-6 (IL-2 2.5 ng/mL) [7]	9.9
YT (IL-2 2.5 ng/mL) [6]	8.53
[1]	9.32
[8]	13.4
[9]	6.65
[10]	8.8
[13]	10.4

percent inhibition of viability [%]
Conditions	1 nM	10 nM	100 nM	1000 nM	10000 nM
DERL-7 (IL-2 2.5 ng/mL) [19]	-3.48	-3.35	-1.28	14.9	99.9
IMC-1 (IL-2 20 ng/mL) [18]	-4.44	-8.29	-0.57	8.19	100
KAI3 (IL-2 2.5 ng/mL) [26]	0.64	-3.56	4.44	55.4	96.6
KHYG-1 (IL-2 2.5 ng/mL) [25]	3.34	0.58	-3.42	47.2	101
NK-92 (IL-2 2.5 ng/mL) [16]	-11.1	-18.3	11.4	41	102
NK-YS (IL-2 2.5 ng/mL) [17]	2.13	-8.18	0.48	22.7	98.8
NKL (IL-2 2.5 ng/mL) [28]	-10.5	-16	-8.09	62.8	104
SNK-6 (IL-2 2.5 ng/mL) [21]	-5.08	-17.2	-1.48	31.4	97.9
YT (IL-2 2.5 ng/mL) [20]	0.06	-7.38	-4.05	18.3	101
[15]	-3.43	-1.33	-2.48	24.8	99.9
[22]	8.2	-4.24	18.1	59.2	90.9
[23]	-3.33	-0.54	6.26	8.12	96.7
[24]	-7.32	-6.43	5.49	23.4	94
[27]	2.06	3.65	16.7	40.9	97.5

CC(C)NC[C@@H](C(=O)N1CCN(c2ncnc3c2[C@H](C)C[C@H]3O)CC1)c1ccc(Cl)cc1 [GDC-0068] (max concentration tested 10000 nM)
Conditions	drug sensitivity score
DERL-7 (IL-2 2.5 ng/mL) [5]	9.75
KAI3 (IL-2 2.5 ng/mL) [12]	0
KHYG-1 (IL-2 2.5 ng/mL) [11]	1.8
NK-92 (IL-2 2.5 ng/mL) [2]	1.5
NK-YS (IL-2 2.5 ng/mL) [3]	1.05
NKL (IL-2 2.5 ng/mL) [14]	0.78
SNK-6 (IL-2 2.5 ng/mL) [7]	0.68
YT (IL-2 2.5 ng/mL) [6]	0
[8]	3.04
[13]	1.57

percent inhibition of viability [%]
Conditions	DERL-7 (IL-2 2.5 ng/mL) [19]	KAI3 (IL-2 2.5 ng/mL) [26]	KHYG-1 (IL-2 2.5 ng/mL) [25]	NK-92 (IL-2 2.5 ng/mL) [16]	NK-YS (IL-2 2.5 ng/mL) [17]	NKL (IL-2 2.5 ng/mL) [28]	SNK-6 (IL-2 2.5 ng/mL) [21]	YT (IL-2 2.5 ng/mL) [20]	[22]	[27]
1 nM	-2.5	12.9	7.35	1.45	7.4	2.85	-1.73	10.5	10.8	5.46
10 nM	3.47	16.7	8.11	-2.57	4.06	7.83	-7.94	10.4	1.35	-2.99
100 nM	-3.9	21.2	10.8	7.49	8.96	4.25	17.9	9.38	6.46	2.75
1000 nM	40.2	10.2	8.62	1.85	7.83	3.13	-5.92	5.43	4.26	4.21
10000 nM	83.9	27.1	22.8	29	20.6	17.5	24.9	17.3	45.6	24.8

CC(C)N(C[C@H]1O[C@@H](n2cnc3c(N)ncnc32)[C@H](O)[C@@H]1O)[C@H]1C[C@@H](CCc2nc3cc(C(C)(C)C)ccc3[nH]2)C1 [EPZ-5676] (max concentration tested 1000 nM)
Conditions	drug sensitivity score
DERL-7 (IL-2 2.5 ng/mL) [5]	0
KAI3 (IL-2 2.5 ng/mL) [12]	0.23
KHYG-1 (IL-2 2.5 ng/mL) [11]	1.32
NK-92 (IL-2 2.5 ng/mL) [2]	1.76
NK-YS (IL-2 2.5 ng/mL) [3]	0.65
NKL (IL-2 2.5 ng/mL) [14]	3.3
SNK-6 (IL-2 2.5 ng/mL) [7]	2.24
YT (IL-2 2.5 ng/mL) [6]	0.67
[8]	0
[13]	1.75

percent inhibition of viability [%]
Conditions	DERL-7 (IL-2 2.5 ng/mL) [19]	KAI3 (IL-2 2.5 ng/mL) [26]	KHYG-1 (IL-2 2.5 ng/mL) [25]	NK-92 (IL-2 2.5 ng/mL) [16]	NK-YS (IL-2 2.5 ng/mL) [17]	NKL (IL-2 2.5 ng/mL) [28]	SNK-6 (IL-2 2.5 ng/mL) [21]	YT (IL-2 2.5 ng/mL) [20]	[22]	[27]
0.1 nM	0.43	-1.4	-0.41	-12.3	-3.52	0.4	-2.4	-1.48	9.51	2.06
1 nM	5.23	-5	1.41	-21.5	-3.4	-6	4.63	-5.01	20.3	11
10 nM	1.69	-1.28	-1.91	-14.1	2.56	-2.76	8.19	-2.34	21	9.38
100 nM	4.27	5.24	7.32	5.88	4.51	18.4	3.31	7.03	20.5	13.4
1000 nM	-4.86	11.9	19.1	24.7	16.4	28.7	35.8	14.4	23.9	15.7
